In one assay the test system is TFEB. Nature of the assay: TFEB nuclear translocation assay. To be noted: Homo sapiens; HeLa wt or HeLa TRPML1 KO cells, treated for 2 hrs; ratio of nuclear to ring-region TFEB intensity. The class given is cell-based. The gist of the method: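 HeLa wild-type or TRPML1 KO cells treated 2 h with compound at 37 °C, PFA-fixed, immunostained for TFEB (Alexa 488) with Hoechst nuclei. Imaged at ×20, four fields/well. Value is ratio of nuclear to perinuclear-ring TFEB intensity, with nuclei counts.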

A further assay has as its system THP-1 cells. Nature of the assay: Lamp1 lysosomal exocytosis assay. It counts as cell-based. The conditions noted are these: Homo sapiens, 55 min, 55 min incubation, top dose 20 μM. The gist of the method:
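THP-1 cells (1e5/well) exposed to a 7-point 3-fold compound series, top final 20 μM, for 55 min at 37°C. Surface Lamp1 then stained with Lamp1-PE on ice in buffer containing 80 μM Dynasore, and read by flow cytometry as PE geometric mean on live, sytox-negative singlets.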

`CC1(C)COc2ccc(S(=O)(=O)N3CC4(CCCC4)c4c(F)cccc43)cc21` [Compound I-100, 1′-[(3,3-dimethyl-2,3-dihydro-1-benzofuran-5-yl)sulfonyl]-4′-fluoro-1′,2′-dihydrospiro[cyclopentane-1,3′-indole]]: the EC50 in the assay on TFEB is no more than 2000 nM; in the assay with THP-1 cells, no less than 5010 nM.
The like results for `CN(C)S(=O)(=O)c1ccc(S(=O)(=O)N2CC3(CN(CC4CCOCC4)C3)c3ccccc32)cc1` [Compound I-101, N,N-dimethyl-4-({1-[(oxan-4-yl)methyl]-1′,2′-dihydrospiro[azetidine-3,3′-indol]-1′-yl}sulfonyl)benzene-1-sulfonamide] were, in that order, 2010 to 8000 nM and no less than 5010 nM.
The like results for `CN(C)S(=O)(=O)c1ccc(S(=O)(=O)N2CC3(CCN(C4CCOC4)CC3)c3ccccc32)cc1` (stereo not drawn) [Compound I-103, N,N-dimethyl-4-{[1′-(oxolan-3-yl)-1,2-dihydrospiro[indole-3,4′-piperidin]-1-yl]sulfonyl}benzene-1-sulfonamide] were, in that order, 2010 to 8000 nM and no less than 5010 nM.
Taken in the same sequence, the figures for `CN(C)S(=O)(=O)c1ccc(S(=O)(=O)N2CC3(CCN(C(=O)OCc4ccccc4)CC3)c3ccccc32)cc1` [Compound I-104] were no more than 2000 nM and no more than 500 nM.
For `CN(C)S(=O)(=O)c1ccc(S(=O)(=O)N2CC3(CN(C(=O)OCc4ccccc4)C3)c3ccccc32)cc1` [Compound I-105, benzyl 1′-[4-(dimethylsulfamoyl)benzenesulfonyl]-1′,2′-dihydrospiro[azetidine-3,3′-indole]-1-carboxylate], the EC50 with TFEB is no more than 2000 nM; with THP-1 cells, no less than 5010 nM.
The like results for `CN(C)S(=O)(=O)c1ccc(S(=O)(=O)N2CC3(CCCC3)Oc3ccccc32)cc1` [Compound I-116, 4-((3,4-dihydrospiro[1,4-benzoxazine-2,1′-cyclopentan]-4-yl}sulfonyl)-N,N-dimethylbenzene-1-sulfonamide] were, in that order, no more than 2000 nM and no less than 5010 nM.
Taken in the same sequence, the figures for `CN(C)S(=O)(=O)c1ccc(S(=O)(=O)N2CC3(CCN(C(=O)C(C)(C)C)CC3)c3ccccc32)cc1` [Compound I-118, 4-{[1′-(2,2-dimethylpropanoyl)-1,2-dihydrospiro[indole-3,4′-piperidin]-1-yl]sulfonyl}-N,N-dimethylbenzene-1-sulfonamide] were no more than 2000 nM and 1010 to 5000 nM.
Taken in the same sequence, the figures for `COC1CCC2(CC1)CN(S(=O)(=O)c1ccc(S(=O)(=O)N(C)C)cc1)c1ccccc12` (stereo not drawn) [Compound I-119, 4-({4-methoxy-1′,2′-dihydrospiro[cyclohexane-1,3′-indol]-1′-yl}sulfonyl)-N,N-dimethylbenzene-1-sulfonamide] were no more than 2000 nM and 1010 to 5000 nM.
Regarding `CC(F)(F)CN1CCC2(CC1)CN(S(=O)(=O)c1ccc(C(F)F)cc1)c1ccccc12` [Compound I-122, 1-((4-(difluoromethyl)phenyl)sulfonyl)-1′-(2,2-difluoropropyl)spiro[indoline-3,4′-piperidine]], the EC50 with TFEB was no more than 2000 nM; in the assay on THP-1 cells it was no less than 5010 nM.
For `CN(C)S(=O)(=O)c1ccc(S(=O)(=O)N2CC3(CCCC3)n3nccc32)cc1` [Compound I-124, 4-({1′,2′-dihydrospiro[cyclopentane-1,3′-pyrazolo[1,5-a]imidazol]-1′-yl}sulfonyl)-N,N-dimethylbenzene-1-sulfonamide], the EC50 is no less than 10000 nM in the assay on TFEB and no less than 5010 nM in the assay on THP-1 cells.
Taken in the same sequence, the figures for `CN(C)S(=O)(=O)c1ccc(S(=O)(=O)N2CCC3(CCN(CC(F)(F)F)CC3)c3ccccc32)cc1` [Compound I-126, N,N-dimethyl-4-((1-(2,2,2-trifluoroethyl)-2′,3′-dihydro-1′H-spiro[piperidine-4,4′-quinolin]-1′-yl)sulfonyl)benzenesulfonamide] were no more than 2000 nM and no less than 5010 nM.
In the case of `CN(C)S(=O)(=O)c1ccc(S(=O)(=O)N2CC3(CCCC3)c3ccncc32)cc1` [Compound I-127, 4-({1′,2′-dihydrospiro[cyclopentane-1,3′-pyrrolo[2,3-c]pyridin]-1′-yl}sulfonyl)-N,N-dimethylbenzene-1-sulfonamide], the EC50 in the assay on TFEB was in the range of 2010 to 8000 nM; in the assay on THP-1 cells it was 1010 to 5000 nM.
Taken in the same sequence, the figures for `CN(C)S(=N)(=O)c1ccc(S(=O)(=O)N2CC3(CCCCC3)c3ccccc32)cc1` (stereo not drawn) [Compound I-129, N,N-dimethyl-4-(spiro[cyclohexane-1,3′-indolin]-1′-ylsulfonyl)benzenesulfonimidamide] were no more than 2000 nM and 510 to 1000 nM.
The like results for `O=C(OCc1ccccc1)N1CCC2(CC1)CN(S(=O)(=O)c1ccc(C(F)F)cc1)c1cccc(F)c12` [Compound I-130, benzyl 1-[4-(difluoromethyl)benzenesulfonyl]-4-fluoro-1,2-dihydrospiro[indole-3,4′-piperidine]-1′-carboxylate] were, in that order, no more than 2000 nM and no more than 500 nM.
The like results for `O=C(OCc1ccccc1)N1CCC2(CC1)CN(S(=O)(=O)c1ccc(C(F)F)cc1)c1cc(F)ccc12` [Compound I-131, benzyl 1-((4-(difluoromethyl)phenyl)sulfonyl)-6-fluorospiro[indoline-3,4′-piperidine]-1′-carboxylate] were, in that order, no more than 2000 nM and no less than 5010 nM.
For `O=C(OCc1ccccc1)N1CCC2(CC1)CN(S(=O)(=O)c1ccc(C(F)F)cc1)c1ccc(F)cc12` [Compound I-132], the EC50 is no more than 2000 nM in the assay on TFEB and no less than 5010 nM in the assay with THP-1 cells.
Taken in the same sequence, the figures for `O=C(OCc1ccccc1)N1CCC2(CC1)CN(S(=O)(=O)c1ccc(C(F)F)cc1)c1c(F)cccc12` [Compound I-133, benzyl 1-((4-(difluoromethyl)phenyl)sulfonyl)-7-fluorospiro[indoline-3,4′-piperidine]-1′-carboxylate] were no more than 2000 nM and no less than 5010 nM.
In the case of `O=C(OCc1ccccc1)N1CCC2(CC1)CN(S(=O)(=O)c1ccc(C(F)F)cc1)c1cccnc12` [Compound I-134, benzyl 1′-[4-(difluoromethyl)benzenesulfonyl]-1′,2′-dihydrospiro[piperidine-4,3′-pyrrolo[3,2-b]pyridine]-1-carboxylate], the EC50 is no more than 2000 nM in the assay with TFEB and no more than 500 nM in the assay on THP-1 cells.
Taken in the same sequence, the figures for `CCOC[C@]1(C)CC[C@]2(CC1)CN(S(=O)(=O)c1ccc(C(F)F)cc1)c1ccccc12` [Compound I-137, (1r,4r)-1′-[4-(difluoromethyl)benzenesulfonyl]-4-(ethoxymethyl)-4-methyl-1′,2′-dihydrospiro[cyclohexane-1,3′-indole]] were no more than 2000 nM and no more than 500 nM.
The like results for `O=C(OCc1ccccc1)N1CCC2(CC1)CN(S(=O)(=O)c1ccc(C(F)(F)C3CC3)cc1)c1ccccc12` [Compound I-139, benzyl 1-((4-(cyclopropyldifluoromethyl)phenyl)sulfonyl)spiro[indoline-3,4′-piperidine]-1′-carboxylate] were, in that order, no more than 2000 nM and no more than 500 nM.
With `CN(C)S(=O)(=O)c1ccc(S(=O)(=O)N2CC3(CCN(C(=O)OCC4CC4)CC3)n3nccc32)cc1` [Compound I-145, cyclopropylmethyl 1′-[4-(dimethylsulfamoyl)benzenesulfonyl]-1′,2′-dihydrospiro[piperidine-4,3′-pyrazolo[1,5-a]imidazole]-1-carboxylate], the EC50 in the assay on TFEB is no less than 10000 nM; in the assay on THP-1 cells it was no less than 5010 nM.
The like results for `Cc1cc2n(n1)C1(CCCCC1)CN2S(=O)(=O)c1ccc(C(F)F)cc1` [Compound I-148, 1′-[4-(difluoromethyl)benzenesulfonyl]-6′-methyl-1′,2′-dihydrospiro[cyclohexane-1,3′-pyrazolo[1,5-a]imidazole]] were, in that order, no less than 10000 nM and no less than 5010 nM.
The like results for `Cc1ccc2c(c1)N(S(=O)(=O)c1ccc(S(=N)(=O)N(C)C)cc1)CC21CCCCC1` (stereo not drawn) [Compound I-149, N,N-dimethyl-4-({6′-methyl-1′,2′-dihydrospiro[cyclohexane-1,3′-indol]-1′-yl}sulfonyl)benzene-1-sulfonoimidamide] were, in that order, no more than 2000 nM and no more than 500 nM.
The like results for `Cc1nn2c(c1C)N(S(=O)(=O)c1ccc(S(=O)(=O)N(C)C)cc1)CC21CCCCC1` [Compound I-154, 4-({6′,7′-dimethyl-1′,2′-dihydrospiro[cyclohexane-1,3′-pyrazolo[1,5-a]imidazol]-1′-yl}sulfonyl)-N,N-dimethylbenzene-1-sulfonamide] were, in that order, no less than 10000 nM and no less than 5010 nM.
Turning to `Cc1cnc2c(c1)N(S(=O)(=O)c1ccc(S(=N)(=O)N(C)C)cc1)CC21CCCCC1` (stereo not drawn) [Compound I-157, N,N-dimethyl-4-({6′-methyl-1′,2′-dihydrospiro[cyclohexane-1,3′-pyrrolo[3,2-b]pyridin]-1′-yl}sulfonyl)benzene-1-sulfonoimidamide], the results for the EC50 with TFEB and in the assay with THP-1 cells were no more than 2000 nM and no less than 5010 nM, respectively.
Taken in the same sequence, the figures for `O=C(OCc1cccnc1)N1CCC2(CC1)CN(S(=O)(=O)c1ccc(C(F)F)cc1)c1ccccc12` [Compound I-158, (pyridin-3-yl)methyl 1-[4-(difluoromethyl)benzenesulfonyl]-1,2-dihydrospiro[indole-3,4′-piperidine]-1′-carboxylate] were no more than 2000 nM and 510 to 1000 nM.
Taken in the same sequence, the figures for `CC(C)OC(=O)N1CCC2(CC1)CN(S(=O)(=O)c1ccc(C(F)F)cc1)c1ccccc12` [Compound I-160, propan-2-yl 1-[4-(difluoromethyl)benzenesulfonyl]-1,2-dihydrospiro[indole-3,4′-piperidine]-1′-carboxylate] were no more than 2000 nM and no more than 500 nM.

As usually defined, the EC50 is the concentration that produces a half-maximal response.

The values above are taken from patent US20230416262A1, “TRPML MODULATORS” (Casma Therapeutics, Inc., priority 2020, published 2023).
